Results on 4 molecules are retold here after patent US20190004043A1 (priority 2015, published 2019).

“Also recorded” adds a separate entry of the source. Where two headings read alike, the source gives them in different places.

Common to all, as to assay type: binding
Experiment [1] concerns the target T1, Torpedo nicotinic Acetylcholine Receptor (Tetronarce californica, UniProt P02710+P02714+P02718).
Experiment [2] has as its target T1, Torpedo nicotinic Acetylcholine Receptor. Kind of experiment: Lateral flow test with two test lines: dose-response competition with biotinylated toxin tracer. The settings on record: for coloration of the two test lines / inhibition of labelled ligand binding: toxin 0.01 to 1 μM. As to the method:
The device used was a device manufactured according to above example 1, with the exception that two test lines were used instead of one test line and one control line. The control line is used to control if the strip test works properly. We controlled that all the lateral flow test devices were working well and we carried out several tests without toxins that we took as control (Ctrl) that the device was working as expected (FIG. 4).
In the present example several experiments were carried out using different toxins at different concentrations. Through the format two test lines, we tested the potency of the toxins at a given concentration.
In particular, different doses of the snake toxin a-bungarotoxin were tested between 0.01 to 10 μM (FIG. 4A). For that purpose, 1 mL of α-bungarotoxin at a concentration of 10 μM was prepared from the commercial a-bungarotoxin (Sigma; 250 μM) using TBS-BSA buffer (150 mM NaCl, 50 mM Tris-HCl, 0.5% BSA, pH 7.5). Successively, 1 mL of 1 μM α-bungarotoxin was prepared by diluting 10-times the previous concentrated solution using TBS-BSA buffer. Serial 10-times dilutions were performed as described to obtain the 0.1 and 0.01 μM α-bungarotoxin solutions using TBS-BSA buffer.
Different doses of the dinoflagellate toxin pinnatoxin-G ranging from 0.01 to 100 μM were also tested (FIG. 4B). For that purpose, 1 mL of pinnatoxin-G at a concentration of 100 μM was prepared from the synthetic pinnatoxin-G stock (A. Zakarian; 2 mM) using TBS-BSA buffer (150 mM NaCl, 50 mM Tris-HCl, 0.5% BSA, pH 7.5). Successively, 1 mL of 50 μM pinnatoxin-G was prepared by diluting 2-times the previous concentrated solution using TBS-BSA buffer. A solution of 1 μM pinnatoxin-G was obtained by diluting 50-times the previous 50 μM pinnatoxin-G solution using TBS-BSA buffer. Serial 10-times dilutions were performed as described to obtain the 0.1 and 0.01 μM pinnatoxin-G solutions using TBS-BSA buffer.
Finally, different doses of the dinoflagellate toxin 13,19-didesmethyl-spirolide C ranging from 0.01 to 10 μM were also tested. For that purpose, 1 mL of 13,19-didesmethyl-spirolide C at a concentration of 10 μM was prepared from the concentrated 13,19-didesmethyl-spirolide C stock (CIFGA; 100 μM) using TBS-BSA buffer (150 mM NaCl, 50 mM Tris-HCl, 0.5% BSA, pH 7.5). Successively, 1 mL of 1 μM 13,19-didesmethyl-spirolide C was prepared by diluting 10-times the previous concentrated solution using TBS-BSA buffer. Serial 10-times dilutions were performed as described to obtain the 0.1 and 0.01 μM 13,19-didesmethyl-spirolide C solutions using TBS-BSA buffer.
The competition experiments were carried out as disclosed in above example 2.

Experiment [3] has the same target. The description is as above. The settings on record: lower concentrations (0.001 to 1 μM).

T1 sequence (P02718 22-522): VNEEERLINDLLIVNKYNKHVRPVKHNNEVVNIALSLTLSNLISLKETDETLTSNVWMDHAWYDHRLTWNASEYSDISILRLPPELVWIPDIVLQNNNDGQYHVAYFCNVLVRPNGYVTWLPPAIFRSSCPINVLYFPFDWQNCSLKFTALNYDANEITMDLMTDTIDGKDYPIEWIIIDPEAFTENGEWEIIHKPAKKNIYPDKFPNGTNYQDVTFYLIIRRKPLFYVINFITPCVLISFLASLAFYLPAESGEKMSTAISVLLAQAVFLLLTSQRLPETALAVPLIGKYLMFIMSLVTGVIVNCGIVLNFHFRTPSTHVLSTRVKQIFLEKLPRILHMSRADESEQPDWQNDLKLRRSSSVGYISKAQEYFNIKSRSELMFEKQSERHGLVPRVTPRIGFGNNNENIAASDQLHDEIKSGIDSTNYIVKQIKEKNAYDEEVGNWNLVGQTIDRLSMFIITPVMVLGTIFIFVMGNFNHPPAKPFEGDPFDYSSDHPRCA
T1 sequence (P02714 18-506): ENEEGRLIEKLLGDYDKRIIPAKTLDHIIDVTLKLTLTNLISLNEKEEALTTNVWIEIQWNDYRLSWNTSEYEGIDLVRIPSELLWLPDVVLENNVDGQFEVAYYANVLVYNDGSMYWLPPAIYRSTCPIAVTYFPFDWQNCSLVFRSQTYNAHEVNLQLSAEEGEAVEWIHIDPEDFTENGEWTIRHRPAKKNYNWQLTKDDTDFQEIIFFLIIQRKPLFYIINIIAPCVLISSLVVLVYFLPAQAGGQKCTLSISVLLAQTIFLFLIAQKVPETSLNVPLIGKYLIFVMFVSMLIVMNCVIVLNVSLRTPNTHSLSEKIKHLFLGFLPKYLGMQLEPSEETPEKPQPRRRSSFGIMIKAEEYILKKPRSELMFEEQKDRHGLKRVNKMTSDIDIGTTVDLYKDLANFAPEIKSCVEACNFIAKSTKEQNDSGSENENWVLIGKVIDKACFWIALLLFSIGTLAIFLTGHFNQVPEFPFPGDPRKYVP
T1 sequence (P02712 25-493, further chain): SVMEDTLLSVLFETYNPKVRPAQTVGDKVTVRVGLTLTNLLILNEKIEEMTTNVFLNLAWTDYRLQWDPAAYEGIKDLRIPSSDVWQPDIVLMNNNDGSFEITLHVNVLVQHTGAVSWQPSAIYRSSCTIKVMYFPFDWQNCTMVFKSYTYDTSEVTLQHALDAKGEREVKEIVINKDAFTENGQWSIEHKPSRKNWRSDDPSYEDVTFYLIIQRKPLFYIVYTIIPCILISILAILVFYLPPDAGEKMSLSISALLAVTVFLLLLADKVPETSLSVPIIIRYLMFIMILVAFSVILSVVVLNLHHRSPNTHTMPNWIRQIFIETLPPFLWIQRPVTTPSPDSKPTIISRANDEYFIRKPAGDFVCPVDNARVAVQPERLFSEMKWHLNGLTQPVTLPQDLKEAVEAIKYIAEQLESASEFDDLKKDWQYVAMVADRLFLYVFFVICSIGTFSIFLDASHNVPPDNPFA
T1 sequence (P02710 25-461): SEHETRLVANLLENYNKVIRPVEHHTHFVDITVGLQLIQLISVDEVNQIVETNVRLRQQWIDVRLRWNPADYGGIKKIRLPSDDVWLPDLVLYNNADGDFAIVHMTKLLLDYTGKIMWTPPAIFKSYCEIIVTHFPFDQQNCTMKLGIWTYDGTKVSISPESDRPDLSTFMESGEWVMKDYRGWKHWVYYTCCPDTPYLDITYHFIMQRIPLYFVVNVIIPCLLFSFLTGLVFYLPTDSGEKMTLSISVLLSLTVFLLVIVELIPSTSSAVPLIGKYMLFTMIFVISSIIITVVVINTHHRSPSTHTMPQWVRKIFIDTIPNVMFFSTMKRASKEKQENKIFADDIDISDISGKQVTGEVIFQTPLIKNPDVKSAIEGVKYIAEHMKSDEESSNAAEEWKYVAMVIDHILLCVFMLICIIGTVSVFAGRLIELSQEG

On to `C=C1CCCC2=NCC(C)C(C)CC23CCC(C2C=C(C)C(=O)O2)=C(C)C3/C=C(/C)C(O)CC2CCC3(CCC4(OC(CCC4(C)O)C1)O3)O2` (centres unmarked) [13-desmethyl-spirolide C], for which, in experiment [1], the “coloration of test line versus control line / inhibition of tracer binding” value is “a colorless or a less-colored band in the test zone; also recorded: inhibits the binding of the tracer”.
Turning to `C=C1CCCC2=NCC(C)C(C)CC23CCC(C2C=C(C)C(=O)O2)=C(C)C3/C=C(\C)C(O)CC2CCC3(CCC4(OC(CCC4O)C1)O3)O2` (centres unmarked) [13,19-didesmethyl-spirolide C], in experiment [2] (all concentrations, 0.01 to 10 μM), the “inhibition of binding of the biotinylated toxin tracer” value is listed as “inhibited the binding of the biotinylated toxin tracer at all concentration”. For the same molecule, the “inhibition of binding of the labelled ligand (test lines colorless)” value (from here on “inhibition of binding … (test lines colorless)”) in experiment [2] (toxin 1 μM) and in experiment [2] (toxin 10 μM) was 100% each time. Also, the “coloration of the two test lines / inhibition of labelled ligand binding” value in experiment [2] is listed as “strong inhibition”.
α-bungarotoxin: in experiment [2], the “coloration of the two test lines / binding of labelled tracer” value was “inhibited the binding of the labelled tracer in both test lines”; the “coloration of the two test lines versus control test” value was “both test lines are colored showing, however, a less intensity than in the control test”; the “inhibition of binding … (test lines colorless)” value is listed as 100%.
As to `C=CC1=C[C@@H]2[C@@H]3O[C@]4(C[C@H]5CCC[C@@]6(CC[C@@]7(O[C@@H](CC[C@@]7(C)O)CC(=C)CCCC7=NC[C@H](C)[C@@H](C)C[C@@]72CC1)O6)O5)C[C@@H](C)[C@@H](O)[C@H]3O4` [pinnatoxin-G], the “coloration of the two test lines versus control strip” value in experiment [2] (toxin 50 μM) and in experiment [2] (toxin 100 μM) was “both test lines were colorless” throughout. In addition, the “inhibition of binding … (test lines colorless)” value in experiment [2] (toxin 50 μM) and in experiment [2] (toxin 100 μM) was 100% in each case. In experiment [2], the “coloration of the two test lines / inhibition of labelled ligand binding” value is “only the second test line was colored with a lower intensity than was shown by the control strip”. Besides, in experiment [3], the “coloration of the two test lines versus control test” value is given as “only the upper test line was colored but to a less intensity than in the control test”.
